Measurements taken from ChEMBL document CHEMBL4732263 (Bioorg Med Chem, 2021).
Converted amounts (≈) assume the structure as drawn.

Tests used:
[1] = AUC(0 to infinity) in Sprague-Dawley rat plasma at 3.9 mg/kg, iv up to 24 hrs by LC-MS analysis; assay type: ADME, organism-based; set-up: route intravenous, dose 3.9 mg/kg, time <=24
[2] = Plasma clearance in Balb/C mouse at 2.6 mg/kg, iv up to 24 hrs by LC-MS analysis; assay type: ADME, organism-based
[3] = Volume of distribution at steady state in Balb/C mouse blood at 2.6 mg/kg, iv up to 24 hrs by LC-MS analysis; assay type: ADME, organism-based; conditions: whole blood, read-out: Vdss
[4] = molecular target: Voltage-gated inwardly rectifying potassium channel KCNH2 (Homo sapiens, UniProt Q12809)
[5] = in vivo; conditions: Balb/C, mouse, po, at 1.9 to 3.5 mg/kg
[6] = in vitro; conditions: human, Caco-2
[7] = in vitro; conditions: human, liver microsomes
[8] = in vitro; conditions: mouse, liver microsomes
[9] = Clearance in Sprague-Dawley rat renal blood at 3.9 mg/kg, iv up to 24 hrs by LC-MS analysis; assay type: ADME, organism-based; conditions: whole blood
[10] = in vitro; conditions: human, Caco-2; remark: listed apart in the source
[11] = cells; conditions: Homo sapiens, HEK293, 10 min
[12] = in vitro; conditions: human, Caco-2; remark: listed apart in the source
[13] = mouse, microsomes, 1 h, 1 µM
[14] = Drug excretion in Sprague-Dawley rat urine at 3.9 mg/kg, iv up to 24 hrs by LC-MS analysis; assay type: ADME, organism-based; conditions: read-out: Drug excretion
[15] = Volume of distribution at steady state in Balb/C mouse plasma at 2.6 mg/kg, iv up to 24 hrs by LC-MS analysis; assay type: ADME, organism-based; conditions: read-out: Vdss
[16] = Clearance in Balb/C mouse blood at 2.6 mg/kg, iv up to 24 hrs by LC-MS analysis; assay type: ADME, organism-based; conditions: whole blood
[17] = in vitro; conditions: Balb/C, mouse, plasma; at 1 µg/mL
[18] = human, microsomes, 1 h, 1 µM
[19] = Drug metabolism in Sprague-Dawley rat at 3.9 mg/kg, iv by LC-MS analysis; assay type: ADME, organism-based; conditions: in vivo
[20] = physchem; conditions: HCl, pH 2, pH 2
[21] = Apparent half life in Balb/C mouse at 2.6 mg/kg, iv up to 24 hrs by LC-MS analysis; assay type: ADME, organism-based; conditions: in vivo, read-out: t1/2(app) (converted)
[22] = octanol/water, pH 7.4
[23] = Volume of distribution at steady state in Sprague-Dawley rat plasma at 3.9 mg/kg, iv up to 24 hrs by LC-MS analysis; assay type: ADME, organism-based; conditions: read-out: Vdss
[24] = mouse, blood, 2 h; at 1 µg/mL
[25] = Clearance in Sprague-Dawley rat blood at 3.9 mg/kg, iv up to 24 hrs by LC-MS analysis; assay type: ADME, organism-based; conditions: whole blood
[26] = physchem; conditions: PBS, pH 6.5, pH 6.5
[27] = Half life in Sprague-Dawley rat at 3.9 mg/kg, iv up to 24 hrs by LC-MS analysis; assay type: ADME, organism-based; conditions: in vivo
[28] = in vitro; conditions: Balb/C, mouse, plasma; at 1 µg/mL; remark: listed apart in the source
[29] = in vitro; conditions: mouse, liver microsomes; remark: listed apart in the source
[30] = molecular target: Sodium channel protein type 5 subunit alpha (Homo sapiens, UniProt Q14524)
[31] = in vitro; conditions: human, liver microsomes; remark: listed apart in the source
[32] = in vitro; conditions: human, Caco-2; remark: listed apart in the source
[33] = Volume of distribution at steady state in Sprague-Dawley rat blood at 3.9 mg/kg, iv up to 24 hrs by LC-MS analysis; assay type: ADME, organism-based; conditions: whole blood, read-out: Vdss
[34] = in vitro; conditions: human, Caco-2; remark: listed apart in the source
[35] = Ratio of drug level in blood to plasma in Sprague-Dawley rat at 3.9 mg/kg, iv up to 24 hrs by LC-MS analysis by LC-MS analysis; assay type: ADME, organism-based; conditions: whole blood and plasma
[36] = Ratio of drug level in blood to plasma in Balb/C mouse plasma at 2.6 mg/kg, iv up to 24 hrs by LC-MS analysis; assay type: ADME, organism-based; conditions: blood and plasma
[37] = AUC(0 to infinity) in Balb/C mouse plasma at 2.6 mg/kg, iv up to 24 hrs by LC-MS analysis; assay type: ADME, organism-based; set-up: route intravenous, dose 2.6 mg/kg, time <=24
[38] = Plasma clearance in Sprague-Dawley rat at 3.9 mg/kg, iv up to 24 hrs by LC-MS analysis; assay type: ADME, organism-based
[39] = Volume of distribution at steady state in Balb/C mouse plasma at 2.5 mg/kg, iv up to 24 hrs by LC-MS analysis; assay type: ADME, organism-based; conditions: read-out: Vdss
[40] = Drug metabolism in Sprague-Dawley rat assessed amiloride formation at 2.5 mg/kg, iv after 4.8 mins by LC-MS analysis; assay type: ADME, organism-based; conditions: in vivo, 0.08 h
[41] = Half life in Sprague-Dawley rat at 2.5 mg/kg, iv up to 24 hrs by LC-MS analysis; assay type: ADME, organism-based; conditions: in vivo
[42] = Clearance in Balb/C mouse blood at 2.5 mg/kg, iv up to 24 hrs by LC-MS analysis; assay type: ADME, organism-based; conditions: whole blood
[43] = AUC(0 to infinity) in Sprague-Dawley rat plasma at 2.5 mg/kg, iv up to 24 hrs by LC-MS analysis; assay type: ADME, organism-based; set-up: route intravenous, dose 2.5 mg/kg, time <=24
[44] = AUC(0 to infinity) in Balb/C mouse plasma at 2.5 mg/kg, iv up to 24 hrs by LC-MS analysis; assay type: ADME, organism-based; set-up: route intravenous, dose 2.5 mg/kg, time <=24
[45] = Volume of distribution at steady state in Balb/C mouse blood at 2.5 mg/kg, iv up to 24 hrs by LC-MS analysis; assay type: ADME, organism-based; conditions: whole blood, read-out: Vdss
[46] = Apparent half life in Balb/C mouse at 2.5 mg/kg, iv up to 24 hrs by LC-MS analysis; assay type: ADME, organism-based; conditions: in vivo, read-out: t1/2(app) (converted)
[47] = Plasma clearance in Balb/C mouse at 2.5 mg/kg, iv up to 24 hrs by LC-MS analysis; assay type: ADME, organism-based
[48] = Ratio of drug level in blood to plasma in Balb/C mouse plasma at 2.5 mg/kg, iv up to 24 hrs by LC-MS analysis; assay type: ADME, organism-based; conditions: whole blood and plasma
[49] = Plasma clearance in Sprague-Dawley rat at 2.5 mg/kg, iv up to 24 hrs by LC-MS analysis; assay type: ADME, organism-based
[50] = Clearance in Sprague-Dawley rat renal blood at 2.5 mg/kg, iv up to 24 hrs by LC-MS analysis; assay type: ADME, organism-based; conditions: whole blood
[51] = Drug excretion in Sprague-Dawley rat urine at 2.5 mg/kg, iv up to 24 hrs by LC-MS analysis; assay type: ADME, organism-based; conditions: read-out: Drug excretion
[52] = Volume of distribution at steady state in Sprague-Dawley rat plasma at 2.5 mg/kg, iv up to 24 hrs by LC-MS analysis; assay type: ADME, organism-based; conditions: read-out: Vdss
[53] = Volume of distribution at steady state in Sprague-Dawley rat blood at 2.5 mg/kg, iv up to 24 hrs by LC-MS analysis; assay type: ADME, organism-based; conditions: whole blood, read-out: Vdss
[54] = Ratio of drug level in blood to plasma in Sprague-Dawley rat at 2.5 mg/kg, iv up to 24 hrs by LC-MS analysis by LC-MS analysis; assay type: ADME, organism-based; conditions: blood and plasma
[55] = Clearance in Sprague-Dawley rat blood at 2.5 mg/kg, iv up to 24 hrs by LC-MS analysis; assay type: ADME, organism-based; conditions: whole blood

Sequence of Sodium channel protein type 5 subunit alpha (Q14524 whole entry): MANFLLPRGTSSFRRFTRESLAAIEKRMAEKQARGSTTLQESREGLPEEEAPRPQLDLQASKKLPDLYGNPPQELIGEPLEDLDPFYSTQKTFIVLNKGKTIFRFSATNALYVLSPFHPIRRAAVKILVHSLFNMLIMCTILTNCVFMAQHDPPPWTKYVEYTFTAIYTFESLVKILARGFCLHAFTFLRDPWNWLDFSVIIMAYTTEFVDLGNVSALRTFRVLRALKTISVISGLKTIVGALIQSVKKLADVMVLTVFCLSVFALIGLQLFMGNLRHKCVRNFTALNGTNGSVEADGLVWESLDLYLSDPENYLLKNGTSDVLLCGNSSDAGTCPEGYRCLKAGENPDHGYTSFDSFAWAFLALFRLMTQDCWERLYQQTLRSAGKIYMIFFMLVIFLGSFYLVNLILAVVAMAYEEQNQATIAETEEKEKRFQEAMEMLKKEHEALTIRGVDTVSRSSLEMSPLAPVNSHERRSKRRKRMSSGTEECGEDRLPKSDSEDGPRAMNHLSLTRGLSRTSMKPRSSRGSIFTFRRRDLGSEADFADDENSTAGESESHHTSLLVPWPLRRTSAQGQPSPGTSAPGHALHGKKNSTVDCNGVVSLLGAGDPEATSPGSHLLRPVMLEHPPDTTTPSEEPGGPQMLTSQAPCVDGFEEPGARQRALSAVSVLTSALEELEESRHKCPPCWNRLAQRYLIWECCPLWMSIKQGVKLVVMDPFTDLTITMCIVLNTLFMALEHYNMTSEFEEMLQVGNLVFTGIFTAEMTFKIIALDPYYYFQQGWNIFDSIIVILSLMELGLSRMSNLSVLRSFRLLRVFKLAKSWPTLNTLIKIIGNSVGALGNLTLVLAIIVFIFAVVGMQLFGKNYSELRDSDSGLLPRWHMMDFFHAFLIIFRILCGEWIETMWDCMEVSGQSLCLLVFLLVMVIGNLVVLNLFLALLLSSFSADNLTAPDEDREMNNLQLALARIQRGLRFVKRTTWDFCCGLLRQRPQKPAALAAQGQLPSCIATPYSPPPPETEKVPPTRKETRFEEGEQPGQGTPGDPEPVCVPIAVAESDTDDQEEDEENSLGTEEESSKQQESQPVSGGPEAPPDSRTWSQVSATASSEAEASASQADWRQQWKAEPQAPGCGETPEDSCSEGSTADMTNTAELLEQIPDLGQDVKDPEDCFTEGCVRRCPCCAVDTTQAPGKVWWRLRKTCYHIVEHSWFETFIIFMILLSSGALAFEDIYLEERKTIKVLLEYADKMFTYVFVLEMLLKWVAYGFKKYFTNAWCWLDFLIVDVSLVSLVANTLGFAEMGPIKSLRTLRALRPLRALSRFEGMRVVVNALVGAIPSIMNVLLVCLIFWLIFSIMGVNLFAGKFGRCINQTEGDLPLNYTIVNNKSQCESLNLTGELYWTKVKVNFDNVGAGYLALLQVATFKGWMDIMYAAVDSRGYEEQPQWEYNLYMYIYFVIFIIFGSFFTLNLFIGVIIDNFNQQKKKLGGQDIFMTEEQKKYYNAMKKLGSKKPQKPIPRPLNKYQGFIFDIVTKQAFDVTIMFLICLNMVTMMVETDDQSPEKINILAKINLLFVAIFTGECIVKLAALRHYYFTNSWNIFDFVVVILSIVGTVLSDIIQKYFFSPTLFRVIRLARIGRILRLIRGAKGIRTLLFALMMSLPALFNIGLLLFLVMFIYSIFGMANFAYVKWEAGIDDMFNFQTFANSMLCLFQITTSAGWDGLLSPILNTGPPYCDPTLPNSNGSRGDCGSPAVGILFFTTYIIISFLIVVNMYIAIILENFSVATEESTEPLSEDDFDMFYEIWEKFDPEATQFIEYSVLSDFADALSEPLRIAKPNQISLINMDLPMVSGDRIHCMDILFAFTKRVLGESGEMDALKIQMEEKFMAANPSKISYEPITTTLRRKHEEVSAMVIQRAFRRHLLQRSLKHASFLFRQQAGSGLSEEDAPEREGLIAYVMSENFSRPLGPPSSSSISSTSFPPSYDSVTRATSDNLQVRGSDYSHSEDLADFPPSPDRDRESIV
Sequence of Voltage-gated inwardly rectifying potassium channel KCNH2 (Q12809 whole entry): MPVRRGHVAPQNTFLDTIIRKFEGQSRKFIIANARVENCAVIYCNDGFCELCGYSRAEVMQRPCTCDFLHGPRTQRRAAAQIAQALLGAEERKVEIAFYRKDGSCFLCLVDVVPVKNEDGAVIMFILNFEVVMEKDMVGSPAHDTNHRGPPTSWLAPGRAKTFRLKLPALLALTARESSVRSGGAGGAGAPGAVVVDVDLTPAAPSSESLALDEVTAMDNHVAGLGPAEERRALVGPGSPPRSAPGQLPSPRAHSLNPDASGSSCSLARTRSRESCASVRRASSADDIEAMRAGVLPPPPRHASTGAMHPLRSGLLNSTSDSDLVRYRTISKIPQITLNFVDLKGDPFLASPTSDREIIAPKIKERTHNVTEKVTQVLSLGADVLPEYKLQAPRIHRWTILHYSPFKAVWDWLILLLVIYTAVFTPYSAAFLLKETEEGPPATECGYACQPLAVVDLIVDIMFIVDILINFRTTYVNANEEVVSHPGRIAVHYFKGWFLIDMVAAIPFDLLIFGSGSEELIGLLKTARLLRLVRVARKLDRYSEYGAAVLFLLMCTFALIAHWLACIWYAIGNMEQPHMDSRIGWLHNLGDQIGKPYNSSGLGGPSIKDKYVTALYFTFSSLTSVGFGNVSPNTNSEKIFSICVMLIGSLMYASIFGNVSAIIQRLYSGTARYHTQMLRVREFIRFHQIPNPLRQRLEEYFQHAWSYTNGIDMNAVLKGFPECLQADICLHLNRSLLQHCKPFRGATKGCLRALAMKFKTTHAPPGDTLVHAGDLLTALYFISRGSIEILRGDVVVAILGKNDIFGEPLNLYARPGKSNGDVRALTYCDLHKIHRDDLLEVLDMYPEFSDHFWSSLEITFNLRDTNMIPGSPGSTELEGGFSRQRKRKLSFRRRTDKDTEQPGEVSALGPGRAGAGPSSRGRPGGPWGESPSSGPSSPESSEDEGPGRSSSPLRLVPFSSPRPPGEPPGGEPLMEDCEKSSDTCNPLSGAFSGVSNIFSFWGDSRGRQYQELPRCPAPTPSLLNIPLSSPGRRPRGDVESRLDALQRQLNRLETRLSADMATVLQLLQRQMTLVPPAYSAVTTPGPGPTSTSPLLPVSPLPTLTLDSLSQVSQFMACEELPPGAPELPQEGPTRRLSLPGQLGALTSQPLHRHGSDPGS

N=C(N)NC(=O)c1nc(-c2cc3ccccc3o2)c(N2CCCCCC2)nc1N
AUC(0-inf) [1]: 2.9 µM·h
clearance [2]: 71 mL/min/kg
Vd [3]: 1.7 L/kg
IC50 [4]: < 3 µM
bioavailability at 24 h [5]: < 5%
Papp B→A at 2 h, 20 µM [6]: 12 ×10⁻⁶ cm/s
half-life at 1 h, 1 µM [7]: 1.13 h
microsomal CLint at 1 h, 1 µM [8]: 73 µL/min/mg
CL renal at 24 h [9]: 0.01 mL/min/kg
recovery at 2 h, 20 µM [10]: 29%
IC50 [11]: < 3 µM
recovery at 2 h, 20 µM [12]: 76%
CL free [13]: 888 µL/min/mg
dose excreted at 24 h [14]: 0.02%
Vd [15]: 2.3 L/kg
clearance [16]: 53 mL/min/kg
fraction unbound at […], 1 ug/ml [17]: 0.02
CL free [18]: 888 µL/min/mg
Drug metabolism [19]: Metabolite_Notdetected
solubility kinetic [20]: 12.5 µg/mL (≈ 31.8 µM)
half-life [21]: 1.7 h
logD [22]: 5.1
Vd [23]: 12.4 L/kg
Stabilty [24]: Unstable
clearance [25]: 39.5 mL/min/kg
solubility kinetic [26]: 1.6 µg/mL (≈ 4.07 µM)
half-life [27]: 7 h
metabolised at 4 h, 1 ug/ml [28]: < 6%
half-life at 1 h, 1 µM [29]: 0.4 h
IC50 [30]: < 3 µM
microsomal CLint at 1 h, 1 µM [31]: 26 µL/min/mg
efflux ratio at 2 h, 20 µM [32]: 40
Vd [33]: 8.6 L/kg
Papp A→B at 2 h, 20 µM [34]: 0.3 ×10⁻⁶ cm/s
blood plasma ratio at 24 h [35]: 1.4
blood plasma ratio at 24 h [36]: 1.4
AUC(0-inf) [37]: 1.6 µM·h
clearance [38]: 56.9 mL/min/kg

N=C(N)NC(=O)c1nc(Cl)c(N2CCCCCC2)nc1N [N,N-HEXAMETHYLENEAMILORIDE]
Vd [39]: 2 L/kg
Drug metabolism [40]: Metabolite_Detected
IC50 [4]: 3.3 µM
bioavailability at 24 h [5]: 4.5%
half-life [41]: 3.2 h
Papp B→A at 2 h, 20 µM [6]: 56 ×10⁻⁶ cm/s
half-life at 1 h, 1 µM [7]: 1.22 h
microsomal CLint at 1 h, 1 µM [8]: 726 µL/min/mg
clearance [42]: 59 mL/min/kg
AUC(0-inf) [43]: 1.6 µM·h
AUC(0-inf) [44]: 1.5 µM·h
recovery at 2 h, 20 µM [10]: 79%
IC50 [11]: 8.3 µM
recovery at 2 h, 20 µM [12]: 100%
CL free [13]: 2243 µL/min/mg
Vd [45]: 1.4 L/kg
fraction unbound at […], 1 ug/ml [17]: 0.03
CL free [18]: 74 µL/min/mg
half-life [46]: 0.62 h
clearance [47]: 86 mL/min/kg
solubility kinetic [20]: > 100 µg/mL
logD [22]: 3.8
Stabilty [24]: Unstable
solubility kinetic [26]: 50 µg/mL (≈ 160 µM)
metabolised at 4 h, 1 ug/ml [28]: < 6%
half-life at 1 h, 1 µM [29]: 0.04 h
blood plasma ratio at 24 h [48]: 1.5
IC50 [30]: 30 µM
clearance [49]: 83.5 mL/min/kg
microsomal CLint at 1 h, 1 µM [31]: 24 µL/min/mg
CL renal at 24 h [50]: 0.2 mL/min/kg
dose excreted at 24 h [51]: 0.5%
Vd [52]: 5.3 L/kg
efflux ratio at 2 h, 20 µM [32]: 3.8
Papp A→B at 2 h, 20 µM [34]: 15 ×10⁻⁶ cm/s
Vd [53]: 2.9 L/kg
blood plasma ratio at 24 h [54]: 1.8
clearance [55]: 46.2 mL/min/kg
